From patent US9737078B2, “Compositions comprising a biological control agent and an insecticide” (priority 2012, dated 2017) come the findings set out here.

Data set [1] relates to Tetranychus urticae. As to the kind of experiment: Tetranychus urticae spray test, OP-resistant, French beans. It counts as in vivo. As for the experimental part: (§1) For all examples efficiencies of the compositions comprising at least one BCA and at least one specific insecticide has been determined by the “Colby-formula”: The expected efficacy of a given combination of two compounds is calculated as follows (see Colby, S. R., “Calculating Synergistic and antagonistic Responses of Herbicide Combinations”, Weeds 15, pp. 20-22, 1967):
(§2) If • X is the efficacy expressed in % mortality of the untreated control for test compound A at a concentration of m ppm respectively m g/ha, • Y is the efficacy expressed in % mortality of the untreated control for test compound B at a concentration of n ppm respectively n g/ha, • E is the efficacy expressed in % mortality of the untreated control using the mixture of A and B at m and n ppm respectively m and n g/ha, • then is E=X+Y−(X×Y/100)
(§3) If the observed insecticidal efficacy of the combination is higher than the one calculated as “E”, then the combination of the two compounds is more than additive, i.e., there is a synergistic effect.
To produce a suitable preparation of active compound, 1 part by weight of active compound is mixed with the stated amount of solvent and emulsifier, and the concentrate is diluted with emulsifier-containing water to the desired concentration. To produce a suitable preparation of a spore suspension the spores are diluted with emulsifier-containing water to the desired concentration. French beans (Phaseolus vulgaris) which are heavily infested with all stages of the two spotted spidermite (Tetranychus urticae), are sprayed with a preparation of the active ingredient of the desired concentration.
After the specified period of time, mortality in % is determined. 100% means all spider mites have been killed and 0% means none of the spider mites have been killed. The mortality values determined thus are recalculated using the Colby-formula (see above).

Data set [2] relates to Myzus persicae. As to the kind of experiment: Myzus persicae spray test (MYZUPE), Chinese cabbage leaf-disks. Format: in vivo. As for the experimental part:
as §1, §2, §3
To produce a suitable preparation of active compound, 1 part by weight of active compound is mixed with the stated amount of solvent and emulsifier, and the concentrate is diluted with emulsifier-containing water to the desired concentration. To produce a suitable preparation of a spore suspension the spores are diluted with emulsifier-containing water to the desired concentration. Chinese cabbage (Brassica pekinensis) leaf-disks infected with all instars of the green peach aphid (Myzus persicae), are sprayed with a preparation of the active ingredient of the desired concentration.
After the specified period of time, mortality in % is determined. 100% means all aphids have been killed; 0% means none of the aphids have been killed. The mortality values determined thus are recalculated using the Colby-formula (see above).

The term mortality denotes the share of the test organisms that died.

On to `Cc1cc(C)c(C2=C(OC(=O)CC(C)(C)C)C3(CCCC3)OC2=O)c(C)c1` [Spiromesifen (1222), Spiromesifen], for which the “Efficacy in % after 6d (mortality)” value in data set [1] (0.8 g ai/ha, after 6 d) is given as 0%; in data set [2] (20 g/ha), 70%. Besides, the “Efficacy in % after 2d (mortality)” value in data set [1] (4 g ai/ha, after 2 d) worked out at 0%.
For the compound `CCOC(=O)OC1=C(c2cc(C)ccc2C)C(=O)N[C@]12CC[C@@H](OC)CC2` [Spirotetramate (1223), Spirotetramat], the mortality at 20 g/ha in data set [1] (Tetranychus urticae, 48 h, 20 g ai/ha, after 2 d, read-out: Efficacy in % after 2d (mortality)) is 0%. The mortality at 0.8 g/ha in data set [1] (Tetranychus urticae, 144 h, 0.8 g ai/ha, after 6 d, read-out: Efficacy in % after 6d (mortality)) came to 0%; in data set [2] (Myzus persicae, 144 h, 0.8 g/ha, after 6 d, read-out: Efficacy in % after 6d (mortality)), 0%. Besides, the mortality at 4 g/ha in data set [2] (Myzus persicae, 144 h, 4 g/ha, after 6 d, read-out: Efficacy in % after 6d (mortality)) amounted to 70%.
